The supplement of paper PMC10307832

Experiments:
Experiment in all cases: relative viability (nuclei count vs DMSO), 5 days (fraction); higher = more cells survive
A549 = tested on: A549
In short: (§1)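 After 5 days of treatment, lung cancer cells in 1536-well plates were fixed and stained in a single step (final 0.05% Triton X-100, 1% formaldehyde, 1 ug/ml Hoechst) and their nuclei counted on 4× images. Treatment had been applied by pin tool the day after seeding as one drug alone or as a fixed anchor-drug dose with five library-drug doses (not always all listed) in √10 steps. Relative viability is the nuclei count of treated wells divided by that of vehicle wells, and values are medians of duplicate plates.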

HARA = tested on: HARA
In short: as §1

LXF-289 = tested on: LXF-289
In short: as §1

NCI-H650 = tested on: NCI-H650
In short: as §1

EBC-1 = tested on: EBC-1
In short: as §1

IA-LM = tested on: IA-LM
In short: as §1

NCI-H1703 = tested on: NCI-H1703
In short: as §1

Calu-6 = tested on: Calu-6
In short: as §1

NCI-H1299 = tested on: NCI-H1299
In short: as §1

Work on C=C1C(=O)O[C@@H](CCCCCCCC)[C@@H]1C(=O)O [C-75] + Nc1ncn([C@H]2C[C@H](O)[C@@H](CO)O2)c(=O)n1 [Decitabine] (partner 2 µM) yielded a relative viability (A549; first compound 0.08 µM) of 0.27, a relative viability (A549; first compound 0.253 µM) of 0.255 and a relative viability (A549; first compound 0.8 µM) of 0.273. For the same compound, the relative viability (A549; first compound 2.53 µM) was 0.35, the relative viability (A549; first compound 8 µM) was 0.215 and the relative viability (HARA; first compound 0.08 µM) was 0.538. The relative viability (HARA; first compound 0.253 µM) was 0.444, the relative viability (HARA; first compound 0.8 µM) was 0.565 and the relative viability (HARA; first compound 2.53 µM) was 0.535. It also gave a relative viability (HARA; first compound 8 µM) of 0.756, a relative viability (LXF-289; first compound 0.08 µM) of 0.361 and a relative viability (LXF-289; first compound 0.253 µM) of 0.396. It also gave a relative viability (LXF-289; first compound 0.8 µM) of 0.317, a relative viability (LXF-289; first compound 2.53 µM) of 0.3 and a relative viability (LXF-289; first compound 8 µM) of 0.399. For the same compound, the relative viability (NCI-H650; first compound 0.08 µM) was 0.315, the relative viability (NCI-H650; first compound 0.253 µM) was 0.35 and the relative viability (NCI-H650; first compound 0.8 µM) was 0.329. For the same compound, the relative viability (NCI-H650; first compound 2.53 µM) was 0.294 and the relative viability (NCI-H650; first compound 8 µM) was 0.403.
Compound Oc1nc(-c2ccc(C(F)(F)F)cc2)nc2c1CSCC2 [XAV939] + Nc1ncn([C@H]2C[C@H](O)[C@@H](CO)O2)c(=O)n1 [Decitabine] (partner 2 µM) has a relative viability (A549; first compound 0.08 µM) of 0.291, a relative viability (A549; first compound 0.8 µM) of 0.315 and a relative viability (A549; first compound 2.53 µM) of 0.228. It also gave a relative viability (HARA; first compound 0.08 µM) of 0.552, a relative viability (HARA; first compound 0.253 µM) of 0.51 and a relative viability (HARA; first compound 0.8 µM) of 0.626. It also gave a relative viability (HARA; first compound 2.53 µM) of 0.379, a relative viability (LXF-289; first compound 0.08 µM) of 0.388 and a relative viability (LXF-289; first compound 0.253 µM) of 0.38. For the same compound, the relative viability (LXF-289; first compound 0.8 µM) was 0.416, the relative viability (LXF-289; first compound 2.53 µM) was 0.345 and the relative viability (NCI-H650; first compound 0.08 µM) was 0.286. It also gave a relative viability (NCI-H650; first compound 0.253 µM) of 0.305, a relative viability (NCI-H650; first compound 0.8 µM) of 0.33 and a relative viability (NCI-H650; first compound 2.53 µM) of 0.325.
C=C1C(=O)O[C@@H](CCCCCCCC)[C@@H]1C(=O)O [C-75] + O=C(c1cc(Cc2n[nH]c(=O)c3ccccc23)ccc1F)N1CCN(C(=O)C2CC2)CC1 [Olaparib] (partner 8 µM) gave a relative viability (EBC-1; first compound 0.08 µM) of 0.62, a relative viability (EBC-1; first compound 0.253 µM) of 0.807 and a relative viability (EBC-1; first compound 0.8 µM) of 0.692. The relative viability (EBC-1; first compound 2.53 µM) was 0.613, the relative viability (EBC-1; first compound 8 µM) was 0.536 and the relative viability (A549; first compound 0.08 µM) was 0.394. For the same compound, the relative viability (A549; first compound 0.253 µM) was 0.497, the relative viability (A549; first compound 0.8 µM) was 0.216 and the relative viability (A549; first compound 2.53 µM) was 0.128. It also gave a relative viability (A549; first compound 8 µM) of 0.251, a relative viability (IA-LM; first compound 0.08 µM) of 0.803 and a relative viability (IA-LM; first compound 0.253 µM) of 0.885. For the same compound, the relative viability (IA-LM; first compound 0.8 µM) was 0.788, the relative viability (IA-LM; first compound 2.53 µM) was 0.761 and the relative viability (IA-LM; first compound 8 µM) was 0.767. The relative viability (HARA; first compound 0.08 µM) was 0.76, the relative viability (HARA; first compound 0.253 µM) was 0.749 and the relative viability (HARA; first compound 0.8 µM) was 1.04. For the same compound, the relative viability (HARA; first compound 2.53 µM) was 0.803, the relative viability (HARA; first compound 8 µM) was 0.715 and the relative viability (NCI-H1703; first compound 0.08 µM) was 0.416. The relative viability (NCI-H1703; first compound 0.253 µM) was 0.391, the relative viability (NCI-H1703; first compound 0.8 µM) was 0.348 and the relative viability (NCI-H1703; first compound 2.53 µM) was 0.441. The relative viability (NCI-H1703; first compound 8 µM) was 0.432, the relative viability (LXF-289; first compound 0.08 µM) was 1.05 and the relative viability (LXF-289; first compound 0.253 µM) was 1.11. The relative viability (LXF-289; first compound 0.8 µM) was 1.01, the relative viability (LXF-289; first compound 2.53 µM) was 0.992 and the relative viability (LXF-289; first compound 8 µM) was 1.06. The relative viability (Calu-6; first compound 0.08 µM) was 0.558, the relative viability (Calu-6; first compound 0.253 µM) was 0.576 and the relative viability (Calu-6; first compound 0.8 µM) was 0.522. The relative viability (Calu-6; first compound 2.53 µM) was 0.489, the relative viability (Calu-6; first compound 8 µM) was 0.469 and the relative viability (NCI-H650; first compound 0.08 µM) was 0.397. For the same compound, the relative viability (NCI-H650; first compound 0.253 µM) was 0.438, the relative viability (NCI-H650; first compound 0.8 µM) was 0.457 and the relative viability (NCI-H650; first compound 2.53 µM) was 0.397. It also gave a relative viability (NCI-H650; first compound 8 µM) of 0.4, a relative viability (NCI-H1299; first compound 0.08 µM) of 0.946 and a relative viability (NCI-H1299; first compound 0.253 µM) of 0.976. It also gave a relative viability (NCI-H1299; first compound 0.8 µM) of 0.974, a relative viability (NCI-H1299; first compound 2.53 µM) of 0.93 and a relative viability (NCI-H1299; first compound 8 µM) of 0.924.
In the case of C=C1C(=O)O[C@@H](CCCCCCCC)[C@@H]1C(=O)O [C-75] + O=C(CCCCCCC(=O)Nc1ccccc1)NO [Vorinostat] (partner 1 µM), the relative viability (IA-LM; first compound 0.08 µM) was 0.886, the relative viability (IA-LM; first compound 0.253 µM) was 1.35 and the relative viability (IA-LM; first compound 0.8 µM) was 0.935. It also gave a relative viability (IA-LM; first compound 2.53 µM) of 1.25, a relative viability (IA-LM; first compound 8 µM) of 0.8 and a relative viability (HARA; first compound 0.08 µM) of 0.598. For the same compound, the relative viability (HARA; first compound 0.253 µM) was 0.258, the relative viability (HARA; first compound 0.8 µM) was 0.415 and the relative viability (HARA; first compound 2.53 µM) was 0.537. It also gave a relative viability (HARA; first compound 8 µM) of 0.438, a relative viability (LXF-289; first compound 0.08 µM) of 0.716 and a relative viability (LXF-289; first compound 0.253 µM) of 0.927. For the same compound, the relative viability (LXF-289; first compound 0.8 µM) was 0.742, the relative viability (LXF-289; first compound 2.53 µM) was 0.781 and the relative viability (LXF-289; first compound 8 µM) was 0.749. For the same compound, the relative viability (NCI-H650; first compound 0.08 µM) was 0.413, the relative viability (NCI-H650; first compound 0.253 µM) was 0.388 and the relative viability (NCI-H650; first compound 0.8 µM) was 0.401. It also gave a relative viability (NCI-H650; first compound 2.53 µM) of 0.351 and a relative viability (NCI-H650; first compound 8 µM) of 0.416.
